Measurements reported in patent US20230240290A1, “USE OF (Z)-3-HEXENYL ESTERS AND METHOD FOR PROTECTING PLANTS AGAINST PESTS” (UNIVERSITAT POLITÈCNICA DE VALÈNCIA, priority 2020, published 2023).

Key:
[1] = system: PR1 (marker gene for the salicylic acid signaling pathway); experiment: Transcriptional response of defense gene PR1 in tomato plants exposed to volatiles (laboratory); format: in vivo, Solanum lycopersicum cv. Moneymaker; conditions: intact tomato plants exposed 24 h; filter paper, 1:10,000 ester:methanol; n=8
Description: Moneymaker tomato plants were used. Two weeks after seed germination, the seedlings were individually transplanted into pots (8×8×8 cm). The plants were kept at 25±2° C., with a constant relative humidity of 65%±5% and a 14:10 h (light:dark) photoperiod. Tomato plants that had not received any pesticide treatment at four weeks of age (about 20 cm tall) were used. All volatiles used were obtained from Sigma-Aldrich (St. Louis, Mo., USA). Each volatile was exposed by using a 2×2 cm piece of filter paper on which 10 μl of a solution containing the corresponding volatile at a concentration of 1:10,000 [(Z)-3-hexenyl ester:methanol] was impregnated as an emitting source of the corresponding volatile (Pérez-Hedo, M. et al. Biocontrol, 63: 203-213 (2018)).
To activate a plant, two pieces of filter paper impregnated with the volatile were placed at the bottom of a 30×30×30 cm plastic cage (BugDorm-1 Insect Tents; MegaView Science Co., Ltd, Taichung, Taiwan) into which the plant was introduced. A control treatment was carried out in which the two pieces of filter paper were impregnated with 10 μl of methanol. Eight repetitions per treatment were performed. The plants of the treatments were kept exposed to the volatile without disturbing for 24 hours in separate and isolated climatic chambers to avoid any interference from the volatiles and were kept at 25±2° C., 65±10% RH, and a 14:10 h (L:D) photoperiod. […]
The methodology followed for extracting and quantifying gene expression was described by Pérez-Hedo et al. Journal of Pest Science 3: 543-554 (2015). The primers used were forward primer: 5′-[…]-3′ (SEQ ID NO: 1) and reverse primer: 5′-[…]-3′ (SEQ ID NO: 2) for the quantification of PR1, forward primer: 5′-[…]-3′ (SEQ ID NO: 3) and reverse primer: 5′-[…]-3′ (SEQ ID NO: 4) for SI-PI-I, and forward primer: 5′-[…]-3′ (SEQ ID NO: 5) and reverse primer: 5′-[…]-3′ (SEQ ID NO: 6) for the SI-PI-II gene. […]

[2] = system: PIN2 (marker gene for the jasmonic acid signaling pathway); experiment: Semi-field release assay, transcriptional response of PIN2 in tomato plants; format: in vivo; conditions: 4 weeks
Description: Two different types of polymeric emitters were used to test the activation level that different emission levels of (Z)-3-hexenyl propionate can provide: 4-mL low-density (LD) polyethylene vial and 4-mL high-density (HD) polyethylene vial. The highest emission level (5 mg/day) was achieved through previous laboratory studies with LD dispensers loaded with 20 mg of the pure substance. The lowest emission level (0.01 mg/day) was provided by HD vials loaded with a 1:100 mixture of (Z)-3-hexenyl propionate and paraffinic oil (0.02:2; g:g). The emission kinetics of the emitters used during the experiments was controlled by studying weight loss (gravimetric method). […] The difference in weight recorded in each period will be the emitted quantity of the substance for each type of dispenser. To obtain the mean emission level of each dispenser, the recorded weights (y) are related to the aging time (x) using a multiple regression analysis.
Once the mentioned emission levels have been established, 5 and 0.01 mg/day/dispenser, tomato plants were exposed to the different emission levels through an experiment under semi-field conditions in a glass greenhouse. […] Environmental conditions were monitored and recorded using a Mithra clima data logger (ver. 1.01.03, Priva nutricontrol Ibérica S.L). […]

Compound: CC/C=C\CCOC(=O)CC [(Z)-3-hexenyl propanoate]
- Transcriptional response of PR1 compared to the control [1]: significantly overexpressed
- Transcriptional response of PIN2 (jasmonic acid pathway) ([2]; 0.01 mg/day emission, HD polyethylene vial): did not affect exposed plants
- Transcriptional response of PIN2 (jasmonic acid pathway) ([2]; 5 mg/day emission, LD polyethylene vial): significantly activated
